Test results taken from patent publication US10752591B2, “18-20 member bi-polycyclic compounds” (Haro Pharmaceutical Inc., priority 2014, dated 2020).

Assays:
[1] = target: purified recombinant human HDAC-1 (Homo sapiens, UniProt Q13547); assay: HDAC-1 enzymatic inhibition (AMC fluorogenic peptide deacetylation); assay type: biochemical; conditions: up to
Method: (§1) The effect of compounds on the enzymatic activity of purified recombinant human HDAC-1, -2, -3, -6, and -8 activity and of purified rat liver HDAC was examined by measuring the deacetylation of synthetic peptides in various preparations of HDACs. HDAC assays were performed using a two-step enzymatic reaction where enzyme activity is correlated to the release of […] (AMC). AMC fluorescence is measured in a fluorescent plate reading using λex380 nm and λen440 nm.
(§2) The reaction was allowed to proceed for 40 min at 37° C., after which developer solution (0.5% trypsin, 10 μM trichostatin A (TSA)) was added to obtain a final concentration of 0.1% trypsin, 2 μM TSA. After 30 minutes at room temperature, the amount of free fluorogenic AMC was measured as described above.

purified rat liver HDAC = purified rat liver HDAC inhibition; assay type: biochemical; conditions: relative to compound 17
Method: as §1, §2

RAR = assay: RAR-mediated transcription, RARE-tk luciferase reporter in MCF7 cells; assay type: cell-based
Excerpt: The effect of various compounds of the invention on RAR-mediated transcription in MCF7 breast cancer cells was examined by measuring their effect on the transcription of a luciferase reporter gene under the control of a TK promoter placed downstream of a RAR response element. In addition, the effect of the compounds on the closely related RXR-mediated transcription was examined by measuring their effect on the transcription of a luciferase reporter gene under the control of a TK promoter placed downstream of a RXR response element.
Typically, 10,000 cells were plated in 96 wells plates in phenol red-free RPMI medium supplemented with 10% charcoal-stripped Fetal Bovine Serum. After 24 hours, cells were transfected with 0.1 μg of luciferase reporter plasmid and 0.01 μg of a reporter plasmid expressing renilla luciferase (RLuc) gene under the control of a SV40 promoter, using Fugene 6 transfection reagent (0.5 μl/well Promega Corporation). Cells were treated in triplicate with compounds or vehicle (DMSO) for 24 hours. Luciferase and renilla luciferase activities were measured using Dual-Glo reagent (Promega Corporation). Luciferase activity was normalized in each well for renilla activity.

[2] = test system: IMR-32 neuroblastoma cells; assay: cytotoxicity, cell survival (CellTiterGlo) in IMR-32; assay type: cell-based; conditions: relative to compounds 17 and 8
Method: (§3) The cytotoxicity of compounds was examined and directly compared to compound 17, by measuring cell survival of clonal tumor cell lines IMR-32, BE2C (neuroblastoma), as well as MDA-MB-231, BT20, HCC-38 (Basal) and MCF7 (luminal) breast cancer cells (ATCC). Cells were cultured in phenol red-free RPMI medium supplemented with 10% FBS and 1 mM Ala-Glu. Typically, 10,000-20,000 cells/well were plated in a 96 well plate (Costar 3197). Cells were exposed to compounds or vehicle (1% DMSO final). Cells were maintained in the presence of compound for four or five days. Media and compounds were renewed every 48 hours. Cell survival was measured using the luminescence CellTiterGlo kit (Promega Corporation) and expressed as relative light unit as fold over DMSO.

[3] = test system: BE-2C neuroblastoma cells; assay: cytotoxicity, cell survival (CellTiterGlo) in BE-2C; assay type: cell-based; conditions: BE-2C cells
Method: as §3

[4] = test system: MDA-MB-231 breast cancer cells; assay: cytotoxicity, cell survival (CellTiterGlo) in MDA-MB-231; assay type: cell-based; conditions: MDA-MB-231 cells
Method: as §3

[5] = test system: Lys40 acetylated alpha tubulin; assay: intracellular acetylation of alpha-tubulin in BE-2C cells; assay type: cell-based
Method: The effect of certain compounds on intracellular acetylation of target proteins was tested in high risk neuroblastoma cells, BE-2C and IMR-32 cells.
BE-2C cells were grown to confluence in phenol-red-free RPMI media supplemented with 10% FBS and 2.5 mM Ala-Glu. […] Total and Lys 40 acetylated alpha tubulin were detected using specific antibodies.
Beta actin, total and Lys382 acetylated p53, and Lys40 acetylated alpha, and total tubulin were detected using antibodies (Cell Signaling #8557, #2524 #2525, #12152 and #2144 respectively) using manufacturer recommended conditions.

C2Cl2 myoblasts = assay: myotube fusion and degeneration in differentiated C2Cl2 cells left in exhausted media; assay type: cell-based; conditions: 200 nM pre-treatment
Method: C2Cl2 myoblasts were seeded at 100,000 in 30 mm plate in growth medium (Phenol red-free RMPI containing 10% FBS, Sodium pyruvate and Ala-Glu), and “pre-treated” with DMSO or 200 nM of compounds 13 or 17. At confluence cells were shifted to differentiation media (high glucose DMEM, +0.2% HS+1× Insulin/Transferrin/Selenium (Life Tech 41400-045)+Glutamine, without Pyruvate). Fully differentiated C2Cl2-derived myotubes were left in culture without media renewal for 8 days followed by media renewal and microscopic examination.

C2Cl2 cells = assay: Q-RT PCR of myofiber-degradation associated genes in long term C2Cl2 cultures; assay type: cell-based; conditions: day 10, normalized for RPLP0
Method: Quantitative RT-PCR was performed on RNA prepared from cell treated as in Example 9. At day 10 of the experiment, cells were rinsed in HBSS (without calcium or magnesium) and RNA was prepared using FastLane Cell cDNA Kit (Qiagen). Quantitative PCR was performed using Eppendorf and SYBR amplification mix (Sigma-Aldrich) using the gene specific primer combination given in Table 3. Data were normalized for ribosomal housekeeping gene RPLP0

aqueous solubility = assay type: physicochemical

purified recombinant human HDAC-1, sequence (Q13547 whole entry): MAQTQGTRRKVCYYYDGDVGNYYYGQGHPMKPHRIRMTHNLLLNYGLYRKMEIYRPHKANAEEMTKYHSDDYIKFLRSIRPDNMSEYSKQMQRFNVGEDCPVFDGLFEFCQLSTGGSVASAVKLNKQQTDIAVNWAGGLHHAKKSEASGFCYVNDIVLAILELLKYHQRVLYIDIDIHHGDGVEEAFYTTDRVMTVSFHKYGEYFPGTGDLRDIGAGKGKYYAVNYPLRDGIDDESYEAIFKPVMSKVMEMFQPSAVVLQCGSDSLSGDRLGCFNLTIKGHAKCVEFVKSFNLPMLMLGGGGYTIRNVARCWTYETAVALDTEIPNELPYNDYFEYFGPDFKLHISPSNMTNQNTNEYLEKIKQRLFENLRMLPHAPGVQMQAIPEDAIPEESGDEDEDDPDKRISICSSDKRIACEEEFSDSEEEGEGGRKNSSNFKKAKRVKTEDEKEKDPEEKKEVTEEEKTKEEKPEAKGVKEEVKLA

## CC1(C)CCC(C)(C)c2cc(-c3cc4cc(C(=O)NO)ccc4[nH]3)ccc21 [Compound 13]
[1]
  maximal inhibition of HDAC-1 activity: ~50%
Purified rat liver HDAC
  times more potent than compound 17 in inhibition of purified rat hepatic HDAC: seventy
RAR
  RARE-dependent luciferase expression: activated
RAR; relative to compound 17
  times more potent than compound 17 in activating RARE-tk_luc reporter: five to ten
[2]
  fold more potent than compounds 17 and 8 in killing IMR-32 cells: ten
[3]
  cytotoxic potency compared with compound 17, SAHA, Ricolinistat: more potent than compound 17, SAHA or Ricolinistat
[4]
  cytotoxic potency compared with compound 17, SAHA, Ricolinistat: more potent than compound 17, SAHA or Ricolinistat
[5]
  alpha tubulin acetylation by LC-MS analysis: lack of increased alpha tubulin acetylation
[5]; 5 μM, 16 hours
  Lysin (K) 40 alpha-Tubulin acetylation: no significant acetylation
C2Cl2 myoblasts
  cellular fusion after 72 hours differentiation versus DMSO: extensive cellular fusion
  myotube structural atrophy in exhausted media for over 8 days: very little structural alteration
C2Cl2 cells
  expression of Atrogin: downregulates
  expression of myogenin: downregulates
Aqueous solubility
  aqueous solubility: improved
